# Results: ChEMBL document CHEMBL1201862, “PubChem BioAssay data set” (2004)
#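 Exposure lasted 48 hours, with cells grown in 96-well plates and compounds tested at five concentrations. GI50: concentration for 50% inhibition of growth.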 Activity calls are given as the source filed them. Cut-off read from the data, not from the text of the source: active = GI50 up to about 1.1 µM and inactive = higher.
# Experiments:
# Assay in all cases: DTP human tumour cell line panel, 48 h
# [1] = tested on: 786-0
# [2] = tested on: A498
# [3] = tested on: A549
# [4] = tested on: ACHN
# [5] = tested on: CAKI-1
# [6] = tested on: CCRF-CEM
# [7] = tested on: COLO 205
# [8] = tested on: DLD-1
# [9] = tested on: DMS-114
# [10] = tested on: DMS-273
# [11] = tested on: EKVX
# [12] = tested on: HCC 2998
# [13] = tested on: HCT-116
# [14] = tested on: HCT-15
# [15] = tested on: HL-60
# [16] = tested on: HOP-18
# [17] = tested on: HOP-62
# [18] = tested on: HOP-92
# [19] = tested on: HT-29
# [20] = tested on: IGROV-1
# [21] = tested on: K562
# [22] = tested on: KM-20L2
# [23] = tested on: KM12
# [24] = tested on: LOX IMVI
# [25] = tested on: M14
# [26] = tested on: M19-MEL
# [27] = tested on: MOLT-4
# [28] = tested on: Malme-3M
# [29] = tested on: NCI-H226
# [30] = tested on: NCI-H23
# [31] = tested on: NCI-H460
# [32] = tested on: NCI-H522
# [33] = tested on: OVCAR-3
# [34] = tested on: OVCAR-4
# [35] = tested on: OVCAR-5
# [36] = tested on: OVCAR-8
# [37] = tested on: RPMI-8226
# [38] = tested on: RXF 393
# [39] = tested on: SF-268
# [40] = tested on: SF-295
# [41] = tested on: SF-539
# [42] = tested on: SK-MEL-28
# [43] = tested on: SK-MEL-2
# [44] = tested on: SK-MEL-5
# [45] = tested on: SK-OV-3
# [46] = tested on: SN12C
# [47] = tested on: SNB-19
# [48] = tested on: SNB-75
# [49] = tested on: SNB-78
# [50] = tested on: SR
# [51] = tested on: SW-620
# [52] = tested on: TK-10
# [53] = tested on: U-251
# [54] = tested on: UACC-257
# [55] = tested on: UACC-62
# [56] = tested on: UO-31
# [57] = tested on: LXFL 529
# [58] = tested on: XF498
smiles,measurement,setting,value
CCOC(=O)C1=C(O)C(=O)c2ccsc2C1=O,GI50,[1],> 100 µM (inactive)
same,GI50,[2],> 100 µM (inactive)
same,GI50,[3],> 100 µM (inactive)
same,GI50,[4],> 100 µM (inactive)
same,GI50,[5],> 100 µM (inactive)
same,GI50,[6],> 100 µM (inactive)
same,GI50,[7],> 100 µM (inactive)
same,GI50,[8],> 100 µM (inactive)
same,GI50,[9],> 100 µM (inactive)
same,GI50,[10],> 100 µM (inactive)
same,GI50,[11],> 100 µM (inactive)
same,GI50,[12],> 100 µM (inactive)
same,GI50,[13],> 100 µM (inactive)
same,GI50,[14],> 100 µM
same,GI50,[15],> 100 µM (inactive)
same,GI50,[16],> 100 µM (inactive)
same,GI50,[17],> 100 µM (inactive)
same,GI50,[18],> 100 µM (inactive)
same,GI50,[19],> 100 µM (inactive)
same,GI50,[20],> 100 µM (inactive)
same,GI50,[21],> 100 µM (inactive)
same,GI50,[22],> 100 µM (inactive)
same,GI50,[23],> 100 µM (inactive)
same,GI50,[24],> 100 µM (inactive)
same,GI50,[25],> 100 µM (inactive)
same,GI50,[26],20.6 µM (inactive)
same,GI50,[27],> 100 µM (inactive)
same,GI50,[28],> 100 µM (inactive)
same,GI50,[29],> 100 µM (inactive)
same,GI50,[30],> 100 µM (inactive)
same,GI50,[31],> 100 µM (inactive)
same,GI50,[32],69.3 µM (inactive)
same,GI50,[33],> 100 µM (inactive)
same,GI50,[34],> 100 µM (inactive)
same,GI50,[35],> 100 µM (inactive)
same,GI50,[36],> 100 µM (inactive)
same,GI50,[37],> 100 µM (inactive)
same,GI50,[38],> 100 µM (inactive)
same,GI50,[39],> 100 µM (inactive)
same,GI50,[40],> 100 µM (inactive)
same,GI50,[41],> 100 µM (inactive)
same,GI50,[42],> 100 µM (inactive)
same,GI50,[43],> 100 µM (inactive)
same,GI50,[44],> 100 µM (inactive)
same,GI50,[45],> 100 µM (inactive)
same,GI50,[46],> 100 µM (inactive)
same,GI50,[47],> 100 µM (inactive)
same,GI50,[48],> 100 µM (inactive)
same,GI50,[49],> 100 µM (inactive)
same,GI50,[50],> 100 µM (inactive)
same,GI50,[51],> 100 µM (inactive)
same,GI50,[52],> 100 µM (inactive)
same,GI50,[53],> 100 µM (inactive)
same,GI50,[54],> 100 µM (inactive)
same,GI50,[55],> 100 µM (inactive)
same,GI50,[56],> 100 µM (inactive)
O=C1CCCCCCCCCCOC(=O)CCCCCCCCCCO1,GI50,[1],> 100 µM (inactive)
same,GI50,[2],> 100 µM (inactive)
same,GI50,[3],> 100 µM (inactive)
same,GI50,[4],> 100 µM (inactive)
same,GI50,[5],> 100 µM (inactive)
same,GI50,[6],> 100 µM (inactive)
same,GI50,[7],> 100 µM (inactive)
same,GI50,[8],> 100 µM (inactive)
same,GI50,[9],> 100 µM (inactive)
same,GI50,[10],> 100 µM (inactive)
same,GI50,[11],> 100 µM (inactive)
same,GI50,[12],> 100 µM (inactive)
same,GI50,[13],> 100 µM (inactive)
same,GI50,[14],> 100 µM
same,GI50,[15],21.8 µM (inactive)
same,GI50,[16],> 100 µM (inactive)
same,GI50,[17],> 100 µM (inactive)
same,GI50,[18],> 100 µM (inactive)
same,GI50,[19],> 100 µM (inactive)
same,GI50,[20],> 100 µM (inactive)
same,GI50,[21],> 100 µM (inactive)
same,GI50,[22],> 10 µM (inactive)
same,GI50,[23],> 100 µM (inactive)
same,GI50,[24],> 100 µM (inactive)
same,GI50,[57],> 100 µM (inactive)
same,GI50,[25],> 100 µM (inactive)
same,GI50,[26],> 100 µM (inactive)
same,GI50,[28],> 100 µM (inactive)
same,GI50,[29],> 100 µM (inactive)
same,GI50,[30],> 100 µM (inactive)
same,GI50,[31],> 100 µM (inactive)
same,GI50,[32],> 100 µM (inactive)
same,GI50,[33],> 100 µM (inactive)
same,GI50,[34],> 100 µM (inactive)
same,GI50,[35],> 100 µM (inactive)
same,GI50,[36],> 100 µM (inactive)
same,GI50,[38],> 100 µM (inactive)
same,GI50,[39],> 100 µM (inactive)
same,GI50,[40],> 100 µM (inactive)
same,GI50,[41],> 100 µM (inactive)
same,GI50,[42],> 100 µM (inactive)
same,GI50,[43],> 100 µM (inactive)
same,GI50,[44],> 100 µM (inactive)
same,GI50,[45],> 100 µM (inactive)
same,GI50,[46],> 100 µM (inactive)
same,GI50,[47],> 100 µM (inactive)
same,GI50,[48],> 100 µM (inactive)
same,GI50,[49],> 100 µM (inactive)
same,GI50,[50],44.7 µM (inactive)
same,GI50,[51],> 100 µM (inactive)
same,GI50,[52],> 100 µM (inactive)
same,GI50,[53],> 100 µM (inactive)
same,GI50,[54],> 100 µM (inactive)
same,GI50,[55],> 100 µM (inactive)
same,GI50,[56],> 100 µM (inactive)
CN1CCn2c(Br)ccc2C1=O,GI50,[1],> 100 µM (inactive)
same,GI50,[2],> 100 µM (inactive)
same,GI50,[3],> 100 µM (inactive)
same,GI50,[4],> 100 µM (inactive)
same,GI50,[5],> 100 µM (inactive)
same,GI50,[6],> 100 µM (inactive)
same,GI50,[7],> 100 µM (inactive)
same,GI50,[8],> 10 µM (inactive)
same,GI50,[10],> 100 µM (inactive)
same,GI50,[11],> 100 µM (inactive)
same,GI50,[12],> 100 µM (inactive)
same,GI50,[13],> 100 µM (inactive)
same,GI50,[14],> 100 µM
same,GI50,[15],> 100 µM (inactive)
same,GI50,[17],> 100 µM (inactive)
same,GI50,[19],> 100 µM (inactive)
same,GI50,[20],> 100 µM (inactive)
same,GI50,[21],> 100 µM (inactive)
same,GI50,[22],> 100 µM (inactive)
same,GI50,[23],> 100 µM (inactive)
same,GI50,[24],> 100 µM (inactive)
same,GI50,[57],> 100 µM (inactive)
same,GI50,[25],> 100 µM (inactive)
same,GI50,[26],> 100 µM (inactive)
same,GI50,[27],> 100 µM (inactive)
same,GI50,[28],> 100 µM (inactive)
same,GI50,[29],> 100 µM (inactive)
same,GI50,[30],> 100 µM (inactive)
same,GI50,[31],> 100 µM (inactive)
same,GI50,[32],> 100 µM (inactive)
same,GI50,[33],> 100 µM (inactive)
same,GI50,[34],> 100 µM (inactive)
same,GI50,[36],> 100 µM (inactive)
same,GI50,[37],> 100 µM (inactive)
same,GI50,[38],> 100 µM (inactive)
same,GI50,[39],> 100 µM (inactive)
same,GI50,[40],> 100 µM (inactive)
same,GI50,[41],> 100 µM (inactive)
same,GI50,[42],> 100 µM (inactive)
same,GI50,[43],> 100 µM (inactive)
same,GI50,[46],> 100 µM (inactive)
same,GI50,[47],> 100 µM (inactive)
same,GI50,[49],> 100 µM (inactive)
same,GI50,[50],> 100 µM (inactive)
same,GI50,[51],> 100 µM (inactive)
same,GI50,[52],> 100 µM (inactive)
same,GI50,[53],> 100 µM (inactive)
same,GI50,[54],> 100 µM (inactive)
same,GI50,[55],> 100 µM (inactive)
same,GI50,[56],> 100 µM (inactive)
same,GI50,[58],> 100 µM (inactive)
